Data reported in patent US20240209004A1, “BORIC ACID DERIVATIVE ACTING AS Beta-LACTAMASE INHIBITOR” (TUOJIE BIOTECH (SHANGHAI) CO., LTD., priority 2021, published 2024).
Read-outs that look alike come from different tables or passages of the source.

How the values were obtained:
[1] = test system: cefepime-resistant Klebsiella pneumoniae; test: MIC in combination with cefepime for drug-resistant bacteria (Test Example 2); type: cell-based; conditions: for MIC: Klebsiella pneumoniae, with CPM 8 μg/mL
Experimental: (§1) The biosafety cabinet was sterilized with ultraviolet light for 30 min. Glycerol tubes were taken out of a −80° C. freezer, and streaks were gently formed in the glycerol tubes using inoculating loops. Bacteria were inoculated onto MHIIA solid plates. The plates were incubated overnight in a 37° C. incubator.
(§2) 30 μL of compound stock solution was added to column 1 of a 96-well v-bottom plate, and DMSO was added to columns 2-10. Subsequently, 15 μL was transferred from column 1 to column 2 using a pipette and well mixed gently, and then 15 μL of solution was transferred from column 2 to column 3; the serial dilution process proceeded to column 10 (200×β-lactamase inhibitor working solutions were prepared). The antibiotic was diluted with a corresponding solvent to form a 1.6 mg/mL solution.

[2] = test system: cefepime-resistant Escherichia coli; test: as above; type: cell-based; conditions: for MIC: Escherichia coli, with CPM 8 μg/mL
Experimental: as §1, §2

[3] = test system: cefepime-resistant Pseudomonas aeruginosa; test: as above; type: cell-based
Experimental: as §1, §2

[4] = test system: cefepime-resistant Acinetobacter baumannii; test: as above; type: cell-based; conditions: for concentration for achieving a bacteriostatic effect where the CPM MIC is fixed at 8 μg/mL: with CPM 8 μg/mL
Experimental: as §1, §2

[5] = test system: cefepime-resistant Klebsiella pneumoniae expressing different types of β-lactamases; test: microbe, parasite or virus in culture; type: cell-based; conditions: for MIC: Klebsiella pneumoniae; for MIC, Cefepime + compound (8 ug/ml): inhibitor at 8 ug/ml
Experimental: as §1
as §2, with “3:” for “3;”

[6] = Single intravenous administration exposure, pharmacokinetics (Test Example 4); type: in vivo, ICR mice; conditions: ICR mice, single intravenous injection, plasma; for AUC(0-t) / AUC(0-inf) / Cmax / Tmax: mouse, in vivo; for AUC(0-t): read-out: AUC0-t; for AUC(0-inf): read-out: AUCinf; for Cmax: read-out: Cmax; for Tmax: read-out: Tmax
Experimental: The solutions were prepared on the day of administration and stored at 4° C.
Single intravenous injections were administered to ICR mice, which were grouped as follows. Blood was collected from the saphenous vein or the fundus venous plexus at 0.083 h, 0.25 h, 0.5 h, 1 h, 2 h, 4 h, 6 h and 12 h after administration (about 0.1 mL/time point). A biological analysis method was developed to determine plasma concentrations at different time points, and related pharmacokinetic parameters were calculated.

[7] = summary in words of Test Example 2

**Q.** With `O=C([O-])c1c2c(cc3c1O[B-](O)(O)[C@@H]1C[C@H]31)OCCO2.[Na+].[Na+]` [Compound 1-1-Na] as the compound, how does the MIC ([1]; read-out: concentration for achieving a bacteriostatic effect where the CPM MIC is fixed at 8 μg/mL, strain FDA-CDC AR-BANK#0003) read?
**A.** 0.125 µg/mL

**Q.** And the MIC ([1]; read-out: concentration for achieving a bacteriostatic effect where the CPM MIC is fixed at 8 μg/mL, strain FDA-CDC AR-BANK#0076)?
**A.** 0.25 µg/mL

**Q.** What about the MIC ([1]; read-out: concentration for achieving a bacteriostatic effect where the CPM MIC is fixed at 8 μg/mL, strain FDA-CDC AR-BANK#0080) of the same compound?
**A.** 2 µg/mL

**Q.** And the MIC ([1]; read-out: concentration for achieving a bacteriostatic effect where the CPM MIC is fixed at 8 μg/mL, strain FDA-CDC AR-BANK#0126)?
**A.** ≤ 0.0156 µg/mL

**Q.** And the MIC ([1]; read-out: concentration for achieving a bacteriostatic effect where the CPM MIC is fixed at 8 μg/mL, strain FDA-CDC AR-BANK#0158)?
**A.** 2 µg/mL

**Q.** What about the “restoring to cefepime antibacterial activity against cefepime-resistant Klebsiella pneumoniae” value [1, 7] of the same compound?
**A.** significantly restore to cefepime antibacterial activity

**Q.** What about the MIC ([2]; read-out: concentration for achieving a bacteriostatic effect where the CPM MIC is fixed at 8 μg/mL, strain FDA-CDC AR-BANK#0055) of the same compound?
**A.** 1 µg/mL

**Q.** What about the MIC ([2]; read-out: concentration for achieving a bacteriostatic effect where the CPM MIC is fixed at 8 μg/mL, strain FDA-CDC AR-BANK#0114) of the same compound?
**A.** 0.0312 µg/mL

**Q.** And the MIC ([2]; read-out: concentration for achieving a bacteriostatic effect where the CPM MIC is fixed at 8 μg/mL, strain FDA-CDC AR-BANK#0370)?
**A.** 1 µg/mL

**Q.** And the MIC ([2]; read-out: concentration for achieving a bacteriostatic effect where the CPM MIC is fixed at 8 μg/mL, strain FDA-CDC AR-BANK#0371)?
**A.** ≤ 0.0156 µg/mL

**Q.** And the “restoring to cefepime antibacterial activity against cefepime-resistant Escherichia coli” value [2, 7]?
**A.** significantly restore to cefepime antibacterial activity

**Q.** And the MIC ([3]; read-out: concentration for achieving a bacteriostatic effect where the CPM MIC is fixed at 8 μg/mL, strain FDA-CDC AR-BANK#0246, with CPM 8 μg/mL)?
**A.** > 16 µg/mL

**Q.** And the MIC ([3]; read-out: concentration for achieving a bacteriostatic effect where the CPM MIC is fixed at 8 μg/mL, strain FDA-CDC AR-BANK#0439, with CPM 8 μg/mL)?
**A.** > 16 µg/mL

**Q.** And the MIC ([3]; read-out: concentration for achieving a bacteriostatic effect where the CPM MIC is fixed at 8 μg/mL, strain FDA-CDC AR-BANK#0441, with CPM 8 μg/mL)?
**A.** 8 µg/mL

**Q.** And the MIC ([3]; read-out: concentration for achieving a bacteriostatic effect where the CPM MIC is fixed at 8 μg/mL, strain FDA-CDC AR-BANK#0444, with CPM 8 μg/mL)?
**A.** 16 µg/mL

**Q.** What about the MIC ([4]; Acinetobacter baumannii, read-out: concentration for achieving a bacteriostatic effect where the CPM MIC is fixed at 8 μg/mL) of the same compound?
**A.** > 16 µg/mL

**Q.** And the “concentration for achieving a bacteriostatic effect where the CPM MIC is fixed at 8 μg/mL” value ([4]; strain FDA-CDC AR-BANK#0035)?
**A.** >16 µg/mL

**Q.** What about the “concentration for achieving a bacteriostatic effect where the CPM MIC is fixed at 8 μg/mL” value ([4]; strain FDA-CDC AR-BANK#0078) of the same compound?
**A.** >16 µg/mL

**Q.** And the MIC ([5]; ATCCBAA1705, read-out: MIC, single substance (1-1-Na, QPX7728, CPM), strain ATCC BAA-1705, KPC-2, TEM, SHV, Class A)?
**A.** > 128 µg/mL

**Q.** What about the MIC ([5]; ATCCBAA1898, read-out: MIC, single substance (1-1-Na, QPX7728, CPM), strain ATCC BAA-1898, KPC-2, Class A) of the same compound?
**A.** > 128 µg/mL

**Q.** And the MIC ([5]; ATCCBAA1899, read-out: MIC, single substance (1-1-Na, QPX7728, CPM), strain ATCC BAA-1899, KPC-2, Class A)?
**A.** 64 µg/mL

**Q.** And the MIC ([5]; ATCCBAA2343, read-out: MIC, single substance (1-1-Na, QPX7728, CPM), strain ATCC BAA-2343, KPC, Class A)?
**A.** > 128 µg/mL

**Q.** What about the MIC ([5]; ATCCBAA2470, read-out: MIC, single substance (1-1-Na, QPX7728, CPM), strain ATCC BAA-2470, NDM-1, Class B) of the same compound?
**A.** 64 µg/mL

**Q.** And the MIC ([5]; read-out: MIC, single substance (1-1-Na, QPX7728, CPM), strain ARLG-1127 (Urine), KPC, KPC-3, TEM, TEM-1, Class A)?
**A.** > 128 µg/mL

**Q.** And the MIC ([5]; read-out: MIC, single substance (1-1-Na, QPX7728, CPM), strain ARLG-1195, CTM-1 group, SHV, NDM, Class A, B)?
**A.** > 128 µg/mL

**Q.** What about the MIC ([5]; read-out: MIC, single substance (1-1-Na, QPX7728, CPM), strain ARLG-1196, CTM-1 group, SHV, NDM, TEM, Class A, B) of the same compound?
**A.** 128 µg/mL

**Q.** What about the “MIC, Cefepime + compound (8 ug/ml)” value ([5]; strain ARLG-1127 (Urine), KPC, KPC-3, TEM, TEM-1, Class A) of the same compound?
**A.** 0.25 µg/mL

**Q.** And the “MIC, Cefepime + compound (8 ug/ml)” value ([5]; strain ARLG-1195, CTM-1 group, SHV, NDM, Class A, B)?
**A.** ≤0.125 µg/mL

**Q.** And the “MIC, Cefepime + compound (8 ug/ml)” value ([5]; strain ARLG-1196, CTM-1 group, SHV, NDM, TEM, Class A, B)?
**A.** ≤0.125 µg/mL

**Q.** What about the “MIC, Cefepime + compound (8 ug/ml)” value ([5]; strain ATCC BAA-1705, KPC-2, TEM, SHV, Class A) of the same compound?
**A.** <0.125 µg/mL

**Q.** What about the “MIC, Cefepime + compound (8 ug/ml)” value ([5]; strain ATCC BAA-1898, KPC-2, Class A) of the same compound?
**A.** <0.125 µg/mL

**Q.** What about the “MIC, Cefepime + compound (8 ug/ml)” value ([5]; strain ATCC BAA-1899, KPC-2, Class A) of the same compound?
**A.** ≤0.125 µg/mL

**Q.** What about the “MIC, Cefepime + compound (8 ug/ml)” value ([5]; strain ATCC BAA-2343, KPC, Class A) of the same compound?
**A.** 0.25 µg/mL

**Q.** What about the “MIC, Cefepime + compound (8 ug/ml)” value ([5]; strain ATCC BAA-2470, NDM-1, Class B) of the same compound?
**A.** ≤0.125 µg/mL

**Q.** What about the t½z ([6]; 10 mg/kg) of the same compound?
**A.** 115 min

**Q.** And the t½z ([6]; 100 mg/kg)?
**A.** 178 min

**Q.** And the AUC(0-t) ([6]; 10 mg/kg)?
**A.** 211 µg·h/mL

**Q.** And the AUC(0-inf) ([6]; 10 mg/kg)?
**A.** 213 µg·h/mL

**Q.** And the Cmax ([6]; 10 mg/kg)?
**A.** 146 µg/mL

**Q.** And the Tmax ([6]; 10 mg/kg)?
**A.** 4.98 min

**Q.** And the AUC(0-t) ([6]; 100 mg/kg)?
**A.** 1400 µg·h/mL

**Q.** And the AUC(0-inf) ([6]; 100 mg/kg)?
**A.** 1540 µg·h/mL

**Q.** What about the Cmax ([6]; 100 mg/kg) of the same compound?
**A.** 607 µg/mL

**Q.** What about the Tmax ([6]; 100 mg/kg) of the same compound?
**A.** 4.98 min
